According to patent US7179816B2, “Chemical derivatives and their application as antitelomerase agents” (Aventis Pharma S.A., priority 2001, dated 2007):

Legend:
[1] = tested on: human telomerase (extract of HL60 cells enriched in telomerase activity); experiment: TRAP assay of telomerase activity (extension of oligonucleotide TS, PCR amplification); type: biochemical; details: compounds at 10, 1, 0.1 and 0.01 μg/ml
Procedure: The antitelomerase biological activity is determined by the following experimental protocol:
Preparation of the Extract Enriched in Human Telomerase Ectivity:
The leukemia line HL60 is obtained from ATCC (American Type Culture Collection, Rockville USA). The cells are cultured in suspension in RPMI 1640 medium containing L-Glutamine at 2 mM, Penicillin 200 U/ml, streptomycin 200 μg/ml, gentamycin 50 μg/ml and supplemented with 10% heat-inactivated fetal calf serum.
An aliquot of 10^5 cells is centrifuged at 3000×G and the supernatant discarded. […]
The samples are then analyzed by electrophoresis on 12% acrylamide gel in a 1×TBE buffer for 1 hour at a voltage of 200 volts, with the aid of a Novex electrophoresis system. […]
The analysis and the quantification of the reaction products are carried out with the aid of an InstantImager apparatus (Pacard).
For each compound concentration tested, the results are expressed as percentage inhibition of the reaction and calculated from the untreated enzymatic control and from the enzyme-free sample (blank) according to the following formula: (Compound Value−blank value/enzymatic control value−blank value)×100. […]
A compound is considered to be active as an antitelomerase agent when the quantity inhibiting 50% of the telomerase reaction is less than 5 μM.

[2] = tested on: G-quadruplex of oligonucleotide GGGTTAGGGTTAGGGTTAGGG (3.5 repeats of the human telomeric motif); experiment: G-quadruplex stabilisation, fluorescence Tm of FAM+DABCYL oligonucleotide; type: binding; details: test product 1 μM, oligonucleotide 0.2 μM, 0.1 M LiCl, 10 mM cacodylate buffer pH 7.6; reference Tm 44° C.
Description: The G-quadruplex stabilizing activity may be determined by a method using the formation of a complex with fluorescein, as described below.
All the oligonucleotides, modified or otherwise, were synthesized by Eurogentec SA, Seraing, Belgium. The oligonucleotide FAM+DABCYL carries the catalog reference OL-0371–0802. It has the sequence: […] (SEQ ID NO:1) corresponding to 3.5 repeats of the human telomeric motif (strand rich in G). The fluorescein is chemically attached to the 5′ end, and the DABCYL to the 3′ end, as described by Eurogentec. The concentration of the samples is checked by spectrophotometry, recording the absorbance spectrum between 220 and 700 nm and using the molar extinction coefficient provided by the supplier. […]
All the measurements of fluorescence were carried out on a Spex Fluorolog DM1B apparatus, using an excitation line width of 1.8 nm and an emission line width of 4.5 nm. […] The oligonucleotide alone was analyzed at 20, 30, 40, 50, 60, 70 and 80° C. The emission spectra are recorded using an excitation wavelength of 470 nm. The excitation spectra are recorded using either 515 nm or 588 nm as emission wavelength. […] A high extinction (80–90%) of the fluorescence of fluorescein at room temperature is observed, in agreement with an intramolecular folding of the oligonucleotide at 20° C. in the form of a G-quadruplex. […]

Molecule | IC50 [1] | G-4 ΔTm [2]
CSc1nc(NCCN(C)C)nc(Nc2ccc3nc(C)cc(N)c3c2)n1 [Example 1-1, N6-[6-(2-dimethylaminoethylamino)-4-methylsulfanyl-[1,3,5]triazin-2-yl]-2-methylquinoline-4,6-diamine] | 790 nM | 6 °C
N6-[(6-(3-dimethylaminopropylamino)-4-diethylamino-[1,3,5]triazin-3-yl]-2-methylquinoline-4,6-diamine [Example 2-1] | 900 nM | 7.9 °C
